Results: US6355620B1, “C-2 modified erythromycin derivatives” (Abbott Laboratories, priority 1999, dated 2002)

Experiments:
Experiment in all cases: In vitro antibacterial activity, agar dilution MIC
Assay type in all cases: cell-based
[1] = test system: Candida albicans CCH 442; details: code TT, BHI agar, 35-37° C., 20 to 24 hours, unit assumed
Method: (§1) Representative compounds of the present invention were assayed in vitro for antibacterial activity as follows: Twelve petri dishes containing successive aqueous dilutions of the test compound mixed with 10 mL of sterilized Brain Heart Infusion (BHI) agar (Difco 0418-01-5) were prepared. Each plate was inoculated with 1:100 (or 1:10 for slow-growing strains, such as Micrococcus and Streptococcus) dilutions of up to 32 different microorganisms, using a Steers replicator block. The inoculated plates were incubated at 35-37° C. for 20 to 24 hours. In addition, a control plate, using BHI agar containing no test compound, was prepared and incubated at the beginning and end of each test.
(§2) An additional plate containing a compound having known susceptibility patterns for the organisms being tested and belonging to the same antibiotic class as the test compound was also prepared and incubated as a further control, as well as to provide test-to-test comparability.
(§3) After incubation, each plate was visually inspected. The minimum inhibitory concentration (MIC) was defined as the lowest concentration of drug yielding no growth, a slight haze, or sparsely isolated colonies on the inoculum spot as compared to the growth control.

[2] = test system: Enterococcusfaecium ATCC X043; details: code II, BHI agar, 35-37° C., 20 to 24 hours, unit assumed
Method: as §1, §2, §3

[3] = test system: Escherichiacoli DC-2; details: code SS, BHI agar, 35-37° C., 20 to 24 hours, unit assumed
Method: as §1, §2, §3

[4] = test system: Escherichiacoli JUHL; details: code QQ, BHI agar, 35-37° C., 20 to 24 hours, unit assumed
Method: as §1, §2, §3

[5] = test system: Escherichiacoli SS; details: code RR, BHI agar, 35-37° C., 20 to 24 hours, unit assumed
Method: as §1, §2, §3

[6] = test system: Haemophilislnfluenzae DILL AMP R; details: code WW, BHI agar, 35-37° C., 20 to 24 hours, unit assumed
Method: as §1, §2, §3

[7] = test system: Micrococcusluteus ATCC 4698; details: code PP, BHI agar, 35-37° C., 20 to 24 hours, unit assumed
Method: as §1, §2, §3

[8] = test system: Micrococcusluteus ATCC 9341; details: code OO, BHI agar, 35-37° C., 20 to 24 hours, unit assumed
Method: as §1, §2, §3

[9] = test system: Mycobacterium smegmatis ATCC 114; details: code UU, BHI agar, 35-37° C., 20 to 24 hours, unit assumed
Method: as §1, §2, §3

[10] = test system: Nocardia Asteroides ATCC 99700; details: code VV, BHI agar, 35-37° C., 20 to 24 hours, unit assumed
Method: as §1, §2, §3

[11] = test system: Staphylococcus aureus 1775; details: code GG, BHI agar, 35-37° C., 20 to 24 hours, unit assumed
Method: as §1, §2, §3

[12] = test system: Staphylococcus aureus A-5177; details: code BB, BHI agar, 35-37° C., 20 to 24 hours, unit assumed
Method: as §1, §2, §3

[13] = test system: Staphylococcus aureus A-5278; details: code CC, BHI agar, 35-37° C., 20 to 24 hours, unit assumed
Method: as §1, §2, §3

[14] = test system: Staphylococcus aureus ATCC 6538P; details: code AA, BHI agar, 35-37° C., 20 to 24 hours, unit assumed
Method: as §1, §2, §3

[15] = test system: Staphylococcus aureus CMX 553; details: code FF, BHI agar, 35-37° C., 20 to 24 hours, unit assumed
Method: as §1, §2, §3

[16] = test system: Staphylococcus aureus CMX 642A; details: code DD, BHI agar, 35-37° C., 20 to 24 hours, unit assumed
Method: as §1, §2, §3

[17] = test system: Staphylococcus aureus NCTC 10649M; details: code EE, BHI agar, 35-37° C., 20 to 24 hours, unit assumed
Method: as §1, §2, §3

[18] = test system: Staphylococcus epidermidis 3519; details: code HH, BHI agar, 35-37° C., 20 to 24 hours, unit assumed
Method: as §1, §2, §3

[19] = test system: Streptococcus Pneumonia 5649; details: code ZZA, BHI agar, 35-37° C., 20 to 24 hours, unit assumed
Method: as §1, §2, §3

[20] = test system: Streptococcus Pneumonia 5979; details: code ZZ, BHI agar, 35-37° C., 20 to 24 hours, unit assumed
Method: as §1, §2, §3

[21] = test system: Streptococcus Pneumonia ATCC 6303; details: code XX, BHI agar, 35-37° C., 20 to 24 hours, unit assumed
Method: as §1, §2, §3

[22] = test system: Streptococcus Pneumonia GYR 1171; details: code YY, BHI agar, 35-37° C., 20 to 24 hours, unit assumed
Method: as §1, §2, §3

[23] = test system: Streptococcus agalactiae CMX 508; details: code KK, BHI agar, 35-37° C., 20 to 24 hours, unit assumed
Method: as §1, §2, §3

[24] = test system: Streptococcus bovis A-5169; details: code JJ, BHI agar, 35-37° C., 20 to 24 hours, unit assumed
Method: as §1, §2, §3

[25] = test system: Streptococcus pyogenes 930; details: code MM, BHI agar, 35-37° C., 20 to 24 hours, unit assumed
Method: as §1, §2, §3

[26] = test system: Streptococcus pyogenes EES61; details: code LL, BHI agar, 35-37° C., 20 to 24 hours, unit assumed
Method: as §1, §2, §3

[27] = test system: Streptococcus pyogenes PIU 2548; details: code NN, BHI agar, 35-37° C., 20 to 24 hours, unit assumed
Method: as §1, §2, §3

Row | SMILES | Antibacterial Activity (MIC) [1] [µg/mL] | Antibacterial Activity (MIC) [2] [µg/mL] | Antibacterial Activity (MIC) [3] [µg/mL] | Antibacterial Activity (MIC) [4] [µg/mL] | Antibacterial Activity (MIC) [5] [µg/mL] | Antibacterial Activity (MIC) [6] [µg/mL] | Antibacterial Activity (MIC) [7] [µg/mL] | Antibacterial Activity (MIC) [8] [µg/mL] | Antibacterial Activity (MIC) [9] [µg/mL] | Antibacterial Activity (MIC) [10] [µg/mL] | Antibacterial Activity (MIC) [11] [µg/mL] | Antibacterial Activity (MIC) [12] [µg/mL] | Antibacterial Activity (MIC) [13] [µg/mL] | Antibacterial Activity (MIC) [14] [µg/mL] | Antibacterial Activity (MIC) [15] [µg/mL] | Antibacterial Activity (MIC) [16] [µg/mL] | Antibacterial Activity (MIC) [17] [µg/mL] | Antibacterial Activity (MIC) [18] [µg/mL] | Antibacterial Activity (MIC) [19] [µg/mL] | Antibacterial Activity (MIC) [20] [µg/mL] | also measured
1 | CCC1OC(=O)C(C)(O)C(=O)C(C)C(OC2OC(C)CC(N(C)C)C2O)C(C)(OCC(O)CO)CC(C)C(=O)C(C)C2NC(=O)OC12C (stereo not drawn) [Example 3, Compound of formula (II): R^a is —CH2CH(OH)CH2OH, R^b is H, Y and Z together are O, T is —NH—, R is —OH] | > 100 | 100 | > 100 | > 100 | 100 | > 128 | > 100 | 50 | > 100 | > 100 | > 100 | > 100 | > 100 | > 100 | > 100 | > 100 | > 100 | > 100 | > 128 | > 128 | Antibacterial Activity (MIC) [21]: 64 µg/mL; Antibacterial Activity (MIC) [22]: 32 µg/mL; Antibacterial Activity (MIC) [23]: 50 µg/mL; Antibacterial Activity (MIC) [24]: 50 µg/mL; Antibacterial Activity (MIC) [25]: > 100 µg/mL; Antibacterial Activity (MIC) [26]: 100 µg/mL; Antibacterial Activity (MIC) [27]: > 100 µg/mL
2 | C=CCC1(C)C(=O)OC(CC)C2(C)OC(=O)NC2C(C)C(=O)C(C)CC(C)(OCC=Cc2cnc3ccccc3c2)C(OC2OC(C)CC(N(C)C)C2O)C(C)C1=O (stereo not drawn) [Example 4, Compound of formula (II): R^a is —CH2CH═CH-(3-quinolinyl), R^b is H, Y and Z together are O, T is —NH—, R is —CH2CH═CH2] | > 100 | 0.2 | > 100 | > 100 | 3.1 | 16 | 0.78 | 0.1 | 3.1 | 0.1 | > 100 | 0.39 | > 100 | 0.78 | 0.39 | 0.78 | 0.78 | 0.39 | 2 | 64 | Antibacterial Activity (MIC) [21]: 0.25 µg/mL; Antibacterial Activity (MIC) [22]: 0.25 µg/mL; Antibacterial Activity (MIC) [23]: 0.2 µg/mL; Antibacterial Activity (MIC) [24]: 0.05 µg/mL; Antibacterial Activity (MIC) [25]: 12.5 µg/mL; Antibacterial Activity (MIC) [26]: 0.1 µg/mL; Antibacterial Activity (MIC) [27]: 0.78 µg/mL
3 | CCC1OC(=O)C(C)(O)C(=O)C(C)C(OC2OC(C)CC(N(C)C)C2O)C(C)(OCC=Cc2cnc3ccccc3c2)CC(C)C(=O)C(C)C2NC(=O)OC12C (stereo not drawn) [Example 8, Compound of formula (II): R^a is —CH2CH═CH-(3-quinolinyl), R^b is H, Y and Z together are O, T is —NH—, R is —OH] | > 100 | 0.2 | > 100 | > 100 | 0.2 | 16 | 0.2 | 0.02 | 3.1 | 0.39 | > 100 | 0.39 | > 100 | 0.39 | 0.78 | 0.39 | 0.78 | 0.39 | 0.5 | 128 | Antibacterial Activity (MIC) [21]: 0.03 µg/mL; Antibacterial Activity (MIC) [22]: 0.03 µg/mL; Antibacterial Activity (MIC) [23]: 0.01 µg/mL; Antibacterial Activity (MIC) [24]: 0.02 µg/mL; Antibacterial Activity (MIC) [25]: 50 µg/mL; Antibacterial Activity (MIC) [26]: 0.02 µg/mL; Antibacterial Activity (MIC) [27]: 0.39 µg/mL
